Converted amounts (≈) assume the structure as drawn.
Experiments:
HeLa = assay: Cytotoxicity against human HeLa cells; type: cell-based
[1] = Drug recovery in Wistar rat urine assessed as retention time treated with (2S)-Pterosin at 100 mg/kg, po administered via gavage measured up to 24 hrs by HRESIMS analysis; type: ADME, organism-based; set-up: dose 100 mg/kg, route oral; settings: in vivo
[2] = Drug recovery in Wistar rat urine treated with (2S)-Pterosin at 100 mg/kg, po administered via gavage measured up to 24 hrs by reverse-phase HPLC analysis; type: ADME, organism-based; set-up: dose 100 mg/kg, route oral; settings: in vivo
[3] = Drug recovery in Wistar rat urine at 100 mg/kg, po administered via gavage measured up to 24 hrs by reverse-phase HPLC analysis; type: ADME, organism-based; set-up: dose 100 mg/kg, route oral; settings: in vivo
[4] = Drug recovery in Wistar rat urine at 100 mg/kg, po administered via gavage measured up to 24 hrs by HRESIMS analysis; type: ADME, organism-based; set-up: dose 100 mg/kg, route oral; settings: read-out: Drug recovery
[5] = Drug recovery in Wistar rat urine assessed as retention time at 100 mg/kg, po administered via gavage measured up to 24 hrs by HRESIMS analysis; type: ADME, organism-based; set-up: dose 100 mg/kg, route oral; settings: in vivo
[6] = Cytotoxicity against human HL60 cells; type: cell-based; settings: HL-60

Compound	Retention_time [1] [min]	Drug recovery [2]	other results
Cc1cc2c(c(C)c1CC(=O)O)C(=O)C(C)C2 (racemic)	48.39	metabolite_detected	IC50 (HeLa): 30 µg/mL (≈ 129 µM)
Cc1c2c(cc3c1C(=O)[C@](C)(CO)C3)C(=O)OCC2	29.61	metabolite_detected	
Cc1cc2c(c(C)c1CCO[C@@H]1O[C@H](C(=O)O)[C@@H](O)[C@H](O)[C@H]1O)C(=O)C(C)C2 (stereo partly drawn)	44.2	metabolite_detected	
Cc1cc2c(c(C)c1CCO)C(=O)[C@](C)(CO[C@@H]1O[C@H](C(=O)O)[C@@H](O)[C@H](O)[C@H]1O)C2	32.08	metabolite_detected	
COC(=O)Cc1c(C)cc2c(c1C)C(=O)[C@](C)(CO)C2	45.33	metabolite_detected	
Cc1cc2c(c(C)c1CCO[C@@H]1O[C@H](C(=O)O)[C@@H](O)[C@H](O)[C@H]1O)C(=O)[C@](C)(CO)C2	29.61	metabolite_detected	
Cc1c(CCO)c(CO)cc2c1C(=O)[C@](C)(CO)C2	20.2	metabolite_detected	
Cc1cc2c(c(C)c1CCO)C(=O)[C@](C)(CO)C2			Drug recovery [3]: Active; dose excreted at 24 h [4]: 2.64%; Retention_time [5]: 36.51 min
Cc1cc2c(c(C)c1CC(=O)O)C(=O)[C@](C)(CO)C2	37.27	metabolite_detected	
Cc1c2c(cc3c1C(=O)[C@](C)(CO)C3)COC(=O)C2	23.37	metabolite_detected	
Cc1cc2c(c(C)c1C(O)CO)C(=O)C(C)C2 (racemic)	35.09	metabolite_detected	
Cc1cc2c(c(C)c1CC(=O)O[C@@H]1O[C@H](C(=O)O)[C@@H](O)[C@H](O)[C@H]1O)C(=O)[C@](C)(CO)C2	24.6	metabolite_detected	

More lines, main results first:

Retention_time [1] [min]	Drug recovery [2]	Compound	other results
25.27	metabolite_detected	Cc1cc2c(c(C)c1CCO)C(=O)[C@H](C)[C@@H]2O	
26.11	metabolite_detected	Cc1cc2c(c(C)c1CC(=O)O)C(=O)[C@](C)(CO)[C@@H]2O	
27.6	metabolite_detected	Cc1cc2c(c(C)c1CCO)C(=O)[C@@H](C)[C@@H]2O	
46.2	metabolite_detected	Cc1cc2c(c(C)c1C)C(=O)[C@](C)(CO)[C@@H]2O	
20.74	metabolite_detected	Cc1cc2c(c(C)c1CCO)C(=O)[C@](C)(CO)[C@@H]2O	
14.12	metabolite_detected	Cc1cc2c(c(C)c1CCO)C(=O)[C@](C)(CO)[C@H]2O	
29.61	metabolite_detected	Cc1c(CCO)c(CO)cc2c1C(=O)C(C)C2 (racemic)	
49.54	metabolite_detected	Cc1cc2c(c(C)c1CCO)C(=O)C(C)C2 (racemic)	IC50 [6]: 8.7 µg/mL (≈ 39.9 µM)

Source: ChEMBL document CHEMBL3526012, “Metabolism of (2S)-pterosin A: identification of the phase I and phase II metabolites in rat urine” (Drug Metab Dispos, 2012)
